{"source": "patent US20190167675A1", "about": "“METHODS AND COMPOSITIONS FOR APPETITE CONTROL AND WEIGHT MANAGEMENT” (SHANGHAI YAO YUAN BIOTECHNOLOGY CO., LTD., priority 2016, published 2019)", "key": {"[1]": {"assay": "Weight change in LepR^PB obese mice", "assay_type": "in vivo, LepR^PB female mice", "conditions": "oral gavage 6 times a week for 5 weeks, 4.1 mg/kg/day Day 1-14, 12.3 mg/kg/day Day 15-35; by day 35", "experimental": "8 weeks old LepR^PB female mice were used in the experiment. LepR^PB mouse is a model of obesity, which carries a mutation in the gene for the leptin receptor. 20 mice were randomly divided into two groups. […] Amiloride was dissolved in DMSO and diluted in sterile water. […] The injection volume was 10 ml/kg. The mice in control group received 82 μl DMSO/kg/day in sterile water. Body weight was measured. The weight changes compared to the body weight on Day 14 were analyzed."}, "[2]": {"assay": "Body composition by NMR in LepR^PB obese mice", "assay_type": "in vivo, LepR^PB female mice", "conditions": "before and after 5-week administration"}, "ASICs [3]": {"system": "ASICs", "conditions": "cited from earlier work"}, "DEG/ENaC ion channels": {"system": "DEG/ENaC ion channels", "assay": "Short-term food intake in normal mice", "assay_type": "in vivo, C57BL6 mice", "conditions": "15 minutes before feeding", "experimental": "13 weeks old C57BL6 Female and male mice were singly housed for 2 weeks before the experiment. Mice were starved Sam-6 μm. […] The administrated volume was 10 ml/kg body weight. 15 minutes later, normal chow solid food was provided to the mice and the food consumption at designated time points were measured. P-values were calculated using t-test (unpaired, 2 tails) for data points. *=p<0.05, **=p<0.01, ***=p<0.001\n15 weeks old C57BL6 female mice were singly housed for 2 weeks before the experiment. Mice were starved Sam-6 μm. Then Benzamil (Benzamil hydrochloride hydrate) was administrated by intraperitoneal injection, 0.01-10 μmole/kg body weight (3.5621 μg 3.5621 mg/kg b.w.), or saline. The administrated volume was 10 ml/kg body weight. 15 minutes later, normal chow solid food was provided to the mice and the food consumption at designated time points were measured."}, "[4]": {"conditions": "mice; i.t., i.c.v., intraplantar or intravenous; cited from earlier work"}, "ASICs [5]": {"system": "ASICs", "conditions": "in vitro; cited from earlier work"}, "ASIC": {"system": "ASIC", "conditions": "cited from earlier work"}, "ENaC": {"target": "T1, ENaC (Homo sapiens, UniProt P37088+P51168+P51170)", "T1 sequence (P37088 1-669)": "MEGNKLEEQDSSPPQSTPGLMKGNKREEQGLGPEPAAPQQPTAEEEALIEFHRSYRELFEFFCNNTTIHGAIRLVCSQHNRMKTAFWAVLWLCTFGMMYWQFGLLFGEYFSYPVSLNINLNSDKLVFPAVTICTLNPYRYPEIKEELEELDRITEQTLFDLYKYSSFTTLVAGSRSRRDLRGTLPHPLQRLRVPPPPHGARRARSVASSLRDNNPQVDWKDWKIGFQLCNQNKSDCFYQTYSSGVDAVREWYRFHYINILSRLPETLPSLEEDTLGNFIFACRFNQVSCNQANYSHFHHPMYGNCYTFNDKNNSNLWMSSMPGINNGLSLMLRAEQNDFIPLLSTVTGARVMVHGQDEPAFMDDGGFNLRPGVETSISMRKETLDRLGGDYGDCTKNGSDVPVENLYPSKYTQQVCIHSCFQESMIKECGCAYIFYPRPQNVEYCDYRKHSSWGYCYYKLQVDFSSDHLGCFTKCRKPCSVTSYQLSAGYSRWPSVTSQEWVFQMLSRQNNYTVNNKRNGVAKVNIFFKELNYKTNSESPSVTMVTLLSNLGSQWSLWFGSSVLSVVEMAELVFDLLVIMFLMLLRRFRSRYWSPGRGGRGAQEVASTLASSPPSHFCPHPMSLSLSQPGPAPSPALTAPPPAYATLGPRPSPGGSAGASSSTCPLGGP", "T1 sequence (P51168 1-640)": "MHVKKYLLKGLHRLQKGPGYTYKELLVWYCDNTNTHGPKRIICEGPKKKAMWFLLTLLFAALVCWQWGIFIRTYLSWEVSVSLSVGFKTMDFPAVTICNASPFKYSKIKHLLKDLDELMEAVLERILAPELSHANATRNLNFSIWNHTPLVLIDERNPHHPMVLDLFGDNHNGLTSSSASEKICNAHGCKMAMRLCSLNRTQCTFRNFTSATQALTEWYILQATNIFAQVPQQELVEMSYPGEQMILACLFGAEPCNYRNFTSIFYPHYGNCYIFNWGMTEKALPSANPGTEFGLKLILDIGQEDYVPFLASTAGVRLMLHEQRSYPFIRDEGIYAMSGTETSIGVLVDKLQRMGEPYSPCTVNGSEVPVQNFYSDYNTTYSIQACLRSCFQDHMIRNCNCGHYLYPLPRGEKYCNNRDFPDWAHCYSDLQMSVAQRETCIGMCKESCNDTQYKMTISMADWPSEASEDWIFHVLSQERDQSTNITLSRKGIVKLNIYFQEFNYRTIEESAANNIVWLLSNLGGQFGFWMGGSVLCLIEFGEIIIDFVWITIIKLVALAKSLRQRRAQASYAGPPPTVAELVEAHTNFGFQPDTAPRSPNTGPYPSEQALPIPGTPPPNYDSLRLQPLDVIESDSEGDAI", "T1 sequence (P51170 1-649)": "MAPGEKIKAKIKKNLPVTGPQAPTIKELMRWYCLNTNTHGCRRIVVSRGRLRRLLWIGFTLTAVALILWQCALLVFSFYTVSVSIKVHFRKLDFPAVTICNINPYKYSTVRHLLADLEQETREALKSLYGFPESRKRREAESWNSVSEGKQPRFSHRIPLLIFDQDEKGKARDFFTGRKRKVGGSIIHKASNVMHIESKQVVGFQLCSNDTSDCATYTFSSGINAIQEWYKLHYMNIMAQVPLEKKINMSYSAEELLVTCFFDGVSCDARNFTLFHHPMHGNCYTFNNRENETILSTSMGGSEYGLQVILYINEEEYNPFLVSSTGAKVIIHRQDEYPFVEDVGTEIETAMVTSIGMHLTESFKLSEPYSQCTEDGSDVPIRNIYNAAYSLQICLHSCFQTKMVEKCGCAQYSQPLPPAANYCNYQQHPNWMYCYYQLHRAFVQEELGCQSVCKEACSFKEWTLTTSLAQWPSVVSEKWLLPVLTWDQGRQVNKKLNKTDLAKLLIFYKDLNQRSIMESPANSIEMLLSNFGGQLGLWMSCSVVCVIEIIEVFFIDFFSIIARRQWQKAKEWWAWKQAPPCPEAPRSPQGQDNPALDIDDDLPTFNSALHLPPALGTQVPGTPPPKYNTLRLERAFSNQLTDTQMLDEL", "conditions": "in vitro and in vivo; cited from earlier work"}, "[6]": {"conditions": "guinea pig TPD model; cited from earlier work"}, "ASICs [7]": {"system": "ASICs", "conditions": "Rat DRG neurons, in vitro; cited from earlier work"}, "heteromeric ASIC1a/2b": {"target": "T2, heteromeric ASIC1a/2b (Homo sapiens, UniProt P78348+Q16515)", "T2 sequence (P78348 1-528)": "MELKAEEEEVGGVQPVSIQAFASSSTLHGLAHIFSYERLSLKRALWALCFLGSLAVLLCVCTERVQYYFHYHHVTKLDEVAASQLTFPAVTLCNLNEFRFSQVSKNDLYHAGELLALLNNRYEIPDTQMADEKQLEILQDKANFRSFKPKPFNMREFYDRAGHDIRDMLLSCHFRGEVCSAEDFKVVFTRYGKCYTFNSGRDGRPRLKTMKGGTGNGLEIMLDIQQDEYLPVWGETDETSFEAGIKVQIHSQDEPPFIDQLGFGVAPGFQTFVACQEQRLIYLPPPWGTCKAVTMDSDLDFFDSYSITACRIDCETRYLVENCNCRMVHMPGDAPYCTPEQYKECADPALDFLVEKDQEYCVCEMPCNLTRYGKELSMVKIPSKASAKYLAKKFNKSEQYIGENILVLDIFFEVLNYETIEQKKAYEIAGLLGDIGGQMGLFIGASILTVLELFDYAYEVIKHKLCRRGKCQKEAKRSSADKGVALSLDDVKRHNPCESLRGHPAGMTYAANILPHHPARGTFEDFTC", "T2 sequence (Q16515 1-563 isoform Q16515-2)": "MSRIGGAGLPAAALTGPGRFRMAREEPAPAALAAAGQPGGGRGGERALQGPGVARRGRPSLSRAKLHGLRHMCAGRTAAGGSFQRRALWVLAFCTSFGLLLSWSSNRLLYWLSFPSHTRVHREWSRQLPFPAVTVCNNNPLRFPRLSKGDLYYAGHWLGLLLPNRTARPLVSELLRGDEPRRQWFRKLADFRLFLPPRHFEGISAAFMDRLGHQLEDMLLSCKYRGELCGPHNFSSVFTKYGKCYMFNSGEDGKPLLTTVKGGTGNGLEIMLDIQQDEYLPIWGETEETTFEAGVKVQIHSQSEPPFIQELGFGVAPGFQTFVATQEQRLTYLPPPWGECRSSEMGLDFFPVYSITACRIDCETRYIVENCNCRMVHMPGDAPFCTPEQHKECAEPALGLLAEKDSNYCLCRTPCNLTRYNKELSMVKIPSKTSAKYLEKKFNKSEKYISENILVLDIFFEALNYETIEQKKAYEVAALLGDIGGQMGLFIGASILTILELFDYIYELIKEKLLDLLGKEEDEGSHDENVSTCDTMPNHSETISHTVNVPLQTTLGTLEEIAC", "conditions": "cited from earlier work"}, "homomeric ASIC1a": {"target": "T3, homomeric ASIC1a (Homo sapiens, UniProt P78348)", "T3 sequence (P78348 1-528)": "T2 sequence (P78348 1-528)", "conditions": "cited from earlier work"}}, "note": "“Also recorded” adds a separate entry of the source."}
{"compound": "NC(N)=NC(=O)c1nc(Cl)c(N)nc1N", "note": "[Amiloride, 3,5-diamino-6-chloro-N-(diaminomethylidene)pyrazine-2-carboxamide]", "values": [{"measurement": "body weight change compared to Day 14, vs DMSO", "setting": "[1]", "result": "significant reductions in body weight; also recorded: clear reduction in weight"}, {"measurement": "reduction in body fat percentage vs DMSO", "setting": "[2]", "result": "significantly more reduction"}, {"measurement": "reduction in body fluid percentage vs DMSO", "setting": "[2]", "result": "not significantly different; also recorded: no significant difference"}, {"measurement": "IC50", "setting": "ASICs [3]", "result": "10 to 100", "unit": "µM"}, {"measurement": "short-term food intake", "setting": "DEG/ENaC ion channels; intraperitoneal, 1, 10 or 100 μmole/kg, male C57BL6 mice", "result": "suppressed short-term food intake"}, {"measurement": "short-term food intake", "setting": "DEG/ENaC ion channels; oral gavage, 1, 10 or 100 μmole/kg, female C57BL6 mice", "result": "suppressed short-term food intake"}]}
{"compound": "APETx2", "values": [{"measurement": "excitotoxicity, spasms, convulsions, motor paralysis, ataxia upon in vivo injections", "setting": "[4]", "result": "never produce excitotoxicity, spasms, convulsions, motor paralysis, nor ataxia"}]}
{"compound": "N=C(N)c1ccc(OCCCCCOc2ccc(C(=N)N)cc2)cc1", "note": "[pentamidine]", "values": [{"measurement": "ASICs blockage activity", "setting": "ASICs [5]", "result": "potent ASICs blockage activity"}]}
{"compound": "N=C(N)c1ccc(-c2cc3ccc(C(=N)N)cc3[nH]2)cc1", "note": "[DAPI, 4′,6-diamidino-2-phenylindole]", "values": [{"measurement": "ASICs blockage activity", "setting": "ASICs [5]", "result": "potent ASICs blockage activity"}]}
{"compound": "CC(C)C1c2cc(C#Cc3ccc4cc(C(=N)N)ccc4c3)ccc2CCN1C", "note": "(stereo not drawn) [10b]", "values": [{"measurement": "potency relative to A-317567", "setting": "ASIC", "result": "about 3 fold"}]}
{"compound": "N=C(NC(=O)c1nc(Cl)c(N)nc1N)NC1CCN(C(=O)c2ccc(C(=O)N3CCC(NC(=N)NC(=O)c4nc(Cl)c(N)nc4N)CC3)cc2)CC1", "note": "[NVP-QBE170]", "values": [{"measurement": "blockage of ENaC", "setting": "ENaC", "result": "potent and selective blockage of ENaC"}, {"measurement": "safety window over existing ENaC blockers, in terms of hyperkalaemia", "setting": "[6]", "result": "significantly enhanced safety window"}]}
{"compound": "CC(C)C1c2cc(/C=C/c3ccc4cc(C(=N)N)ccc4c3)ccc2CCN1C", "note": "(stereo not drawn) [10a]", "values": [{"measurement": "potency relative to A-317567", "setting": "ASIC", "result": "about 3 fold"}]}
{"compound": "CC(C)C1c2cc(C3CC3c3ccc4cc(C(=N)N)ccc4c3)ccc2CCN1C", "note": "(stereo not drawn) [A-317567]", "values": [{"measurement": "potency relative to Amiloride on ASICs currents", "setting": "ASICs [7]", "result": "1.8-15 fold"}]}
{"compound": "PcTx1", "values": [{"measurement": "inhibition of heteromeric ASIC1a/2b", "setting": "heteromeric ASIC1a/2b", "result": "nanomolar potency"}, {"measurement": "inhibition of homomeric ASIC1a", "setting": "homomeric ASIC1a", "result": "nanomolar potency"}, {"measurement": "excitotoxicity, spasms, convulsions, motor paralysis, ataxia upon in vivo injections", "setting": "[4]", "result": "never produce excitotoxicity, spasms, convulsions, motor paralysis, nor ataxia"}]}
{"compound": "N=C(N)c1ccc(/N=N/Nc2ccc(C(=N)N)cc2)cc1", "note": "[diminazene]", "values": [{"measurement": "ASICs blockage activity", "setting": "ASICs [5]", "result": "potent ASICs blockage activity"}]}
